Results: patent US20180179129A1, “SOLVENT COMPOSITIONS FOR USE AS HEXANE REPLACEMENTS” (TBF ENVIRONMENTAL TECHNOLOGY INC., priority 2015, published 2018)

What was measured:
[1] = cited from earlier work
[2] = Performance test: solvency of G1652 resin; type: physicochemical; settings: scale 1 = completely insoluble, 10 = completely soluble, >=6 soluble; 0.5 mL, ~20 mg resin, 22° C., 1 hour
Method: (§1) Several compounds were combined in different initial blends (Table 1). Standardized performance tests on solvency of a variety of resins, including (but not limited to) Kraton resins G1652, KR1164, KR1171, and G1726, Sukorez resin SU100S, and paraffin wax.
(§2) The performance tests on resins were performed as follows: The addition of 0.5 mL of each formulation to an individual screw-cap vial containing a stirbar and resin (G1652: ˜20 mg, SU100S: ˜40 mg, G1726: ˜25 mg, KR1164: ˜20 mg, KR1171, ˜20 mg, paraffin wax: ˜55 mg). The vials were tightly capped and solutions were stirred on a stirplate (400 rpm) at 22° C. for 1 hour. The stirbar was removed and solvency was observed, photos of the results were taken (Formulations 1-27, G1652 and SU100S). The odor of the blends was also tested empirically. Evaporation rates were calculated based on weight averages (% by volume) of individual components.

[3] = Performance test: solvency of SU100S resin; type: physicochemical; settings: scale 1 = completely insoluble, 10 = completely soluble, >=6 soluble; 0.5 mL, ~40 mg resin, 22° C., 1 hour
Method: as §1, §2

Compound | stability ([1]; in the presence of strong aqueous bases or aqueous acids) | solubility in water ([1]; room temperature) | G1652 solvency [2] | SU100S solvency [3]
COC(C)=O [Methyl acetate] | not stable | 25% | – | –
FC(F)(F)c1ccc(Cl)cc1 [Formulation 26, para-chlorobenzotrifluoride] | – | – | 10 | 10
CCCCCC [Formulation 27, hexanes] | – | – | 10 | 10
